Settings: rat; liver microsomes; pH 7.4; 15.0 min; 1.0 µM
For `CCCN1CNc2c(c(=O)[nH]c(=S)n2CCc2cccc(Cl)c2Cl)C1`, the half-life was 2.47 min. For `CN1CCN(c2cc(-c3nc(Nc4ccc(F)c(F)c4)c4ccccc4n3)ccn2)CC1`, the half-life was 5.3 min. Work on `Cc1ccc(S(=O)(=O)Nc2cnccc2C(=O)Nc2nc(-c3ccc(Cl)c(Cl)c3)cs2)cc1` yielded a half-life greater than 30 min. `CN1CCC(N(Cc2cccs2)c2ccccc2)CC1` gave a half-life of 1.37 min. Work on `Cn1nnnc1Sc1ncnc2sc(-c3ccccc3)cc12` yielded a half-life of 12.3 min. Work on `O=C(COc1ccccc1)NCC(c1cccs1)S(=O)(=O)c1ccc(Cl)cc1` (stereo not given) yielded a half-life of 1.44 min. Compound `Cc1ccc(S(=O)(=O)Nc2cnccc2C(=O)Nc2nc(-c3ccco3)cs2)cc1` has a half-life of 1.9 min. In the case of `O=C1Nc2ccc(-c3cccc(C(F)(F)F)c3)cc2C(=O)N2CCN(C(=O)COc3ccccc3)C[C@H]12`, the half-life is reported as 5.73 min. `O=C(Nc1ncc(Cc2ccc(C(F)(F)F)cc2)s1)c1cnc(-c2ccccc2)s1` gave a half-life greater than 30 min. In the case of `CNC(=O)Cn1cc(-c2ccc3c(c2)C(F)CC32NC(=O)N(CC(=O)N(Cc3ccc(F)cc3)[C@@H](C)C(F)(F)F)C2=O)cn1` (stereo not given in full), the half-life is reported as 18.9 min. `COc1cccc(C(=O)Nc2cccc(OCc3cc(=O)n4cccc(C)c4n3)c2)c1` gave a half-life of 3.17 min. Work on `COC(=O)[C@]12CCC(C)(C)C[C@@H]1[C@@H]1C(=O)C=C3[C@@]4(C)C=C(C#N)C(=O)C(C)(C)[C@@H]4CC[C@@]3(C)[C@]1(C)CC2` yielded a half-life of 5.97 min. `CCOc1ccc(CCNC(=O)c2cc3ncccc3n2Cc2cccc(C)c2)cc1OCC` gave a half-life of 1.9 min. Compound `CC(=O)c1ccc(-c2csc(N3CCC(C(N)=O)CC3)n2)cc1` has a half-life of 4.4 min. With `COc1ccc(Cn2c(C(=O)O)c(CNCc3cccc(OC)c3)c3ccc(C)cc32)cc1` the half-life was 11.6 min. With `Fc1ccccc1-c1ccc(Nc2nc(-c3ccncc3)nc3ccccc23)cc1F` the half-life was greater than 30 min. In the case of `CN(C)c1cccc(-c2nc(N3CCC(C(N)=O)CC3)ncc2F)c1`, the half-life is reported as 1.45 min. `COc1cc(/C=C(\C#N)C(=O)c2ccc(O)c(O)c2)cc(I)c1O` showed a half-life greater than 30 min. `CC(C)(C)CC(C)(C)c1ccc(O)cc1` showed a half-life of 5.8 min. For `COc1ccc(C(=O)CCN(C)C)cc1F`, the half-life was 1.08 min. With `COc1ccnc(NC(=S)N2CCN(c3cccc(C(F)(F)F)n3)CC2)c1` the half-life was 12 min. With `O=C(O)c1ccc(N2C(=O)/C(=C/c3ccc(-c4ccc([N+](=O)[O-])cc4)o3)C=C2c2ccccc2)cc1` the half-life was greater than 30 min. In the case of `Cc1cnccc1-c1nc(Nc2ccc(F)c(F)c2)c2ccccc2n1`, the half-life is reported as 10 min. Compound `FC(F)(F)c1ccc(CN2CCNc3cc(Nc4ccccc4)ncc3C2)cc1` has a half-life of 17.3 min. For `COc1ccc(-c2csc(NC(=O)c3ccncc3NS(=O)(=O)c3ccc(C)cc3)n2)cc1`, the half-life was 4.7 min. Work on `O=S(=O)(Nc1nccs1)c1ccc(NCc2cccc(Br)c2O)cc1` yielded a half-life of 14 min. `O=C(O)c1ccccc1-c1ccc(/C=c2\sc3nc4cc(Br)cnc4n3c2=O)o1` showed a half-life of 22 min. With `O=C(Nc1ccc(F)cc1F)c1cc(-c2ccc[nH]2)n[nH]1` the half-life was 16.7 min. For `CN1C(=O)c2ccccc2[S@](=O)c2ccc(C(=O)NCc3ccc(Br)cc3)cc21`, the half-life was 13 min. Work on `Cc1ccc(-c2cc(C(=O)Nc3ccc(S(=O)(=O)NCc4nccs4)cc3)c3ccccc3n2)cc1C` yielded a half-life of 5.8 min. `COc1ncccc1-c1cc2[nH]ccc2c(C(=O)NCc2c(C)cc(C)[nH]c2=O)n1` gave a half-life of 5.48 min. For `O=[N+]([O-])c1ccc(-c2nc(Nc3ccc(F)c(F)c3)c3ccccc3n2)cc1`, the half-life was greater than 30 min. For `CNc1nc(-c2cccc3ccccc23)ccc1C#N`, the half-life was 5.7 min. In the case of `O=C(Nc1ccc(S(=O)(=O)Nc2nccs2)cc1)c1ccncc1`, the half-life is reported as greater than 30 min. `Cc1ccc2nc(-c3ccccn3)c(Nc3ccccc3C)n2c1` gave a half-life of 12.2 min. Work on `Cc1c([C@@H](C)C2NC[C@H](C)C[C@@H]2O)ccc2c1C[C@@H]1[C@H]2CC=C2C[C@@H](O)CC[C@@]21C` (stereo not given in full) yielded a half-life greater than 30 min. For `CC1Cc2cc(S(=O)(=O)NCc3ccc(N(C)C)cc3)ccc2N1C(=O)C1CCC1` (stereo not given), the half-life was 1.73 min. `CN(Cc1ccc(/C=C/C(=O)NO)cc1)CC12CC3CC(CC(C3)C1)C2` gave a half-life of 2.89 min. For `Clc1cccc(-c2ccc(-c3nnc(CCCc4ccc5cccnc5n4)o3)cc2)c1`, the half-life was 2.3 min. `Cc1ccc(S(=O)(=O)Nc2cnccc2C(=O)Nc2nc(-c3ccncc3)cs2)cc1` gave a half-life of 17 min. Compound `OCC(O)CCO/N=C1/C(c2c(O)[nH]c3ccccc23)=Nc2ccccc21` (stereo not given) has a half-life of 10 min. In the case of `CN([C@@H](Cc1ccc(OS(=O)(=O)c2cccc3cnccc23)cc1)C(=O)N1CCN(c2ccccc2)CC1)S(=O)(=O)c1cccc2cnccc12`, the half-life is reported as 1 min. `O=[S+]([O-])(Nc1cnc2ccccc2c1)c1ccc(NCc2ccc(Cl)cc2O)cc1` gave a half-life of 18 min. In the case of `CC[C@@H]1C(=O)N(C)c2cnc(Nc3ccc(C(=O)NC4CCN(C)CC4)cc3OC)nc2N1C1CCCC1`, the half-life is reported as greater than 30 min. `COc1ccc(O)c(CNc2ccc(S(=O)(=O)Nc3nccs3)cc2)c1` gave a half-life greater than 30 min. Compound `O=C(O)Cn1c(C(=O)Nc2nc(-c3ccccc3Cl)cs2)cc2ccccc21` has a half-life greater than 30 min. `Cc1ccc(NS(=O)(=O)c2ccc3c(c2)NC(=O)CO3)cc1C` showed a half-life of 3.13 min. `O=C(c1csnn1)N1CCC2(CCCN(C(c3ccccc3)c3ccccc3)C2)CC1` showed a half-life of 2.1 min. In the case of `Fc1ccc(Nc2nc(-c3ccnc4ccccc34)nc3ccccc23)cc1F`, the half-life is reported as 27 min. `CC(C)(C)n1nc(-c2ccc(Cl)cc2)c2c(N)ncnc21` showed a half-life greater than 30 min.

Source: PubChem BioAssay AID1508591
